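Interpolation was linear, between the two tested concentrations surrounding the appropriate level; five concentrations were tested over 48 hours in 96-well plates. At the TGI there is no net growth.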

Test systems include SN12C renal; M14 melanoma; OVCAR-5 ovarian; U251 CNS; A549 NSCLC; OVCAR-3 ovarian; KM12 colon; SK-MEL-28 melanoma; SF-539 CNS; HT29 colon; NCI-H226 lung; OVCAR-8 ovarian; SNB-75 CNS; K-562 leukemia; HCC-2998 colon; UO-31 renal; CAKI-1 renal.
Common to all, as to experiment: NCI tumour cell line growth inhibition, 48 h

As for `COC(=O)c1ccc(OCc2ccc3nc(OC)c(OC)nc3c2)cc1`, the TGI with SN12C renal, in the test with M14 melanoma, in the test with OVCAR-5 ovarian, in the test on U251 CNS, in the test with A549 NSCLC and with OVCAR-3 ovarian was greater than 100 µM in each case. In addition, the TGI with KM12 colon, in the test with SK-MEL-28 melanoma, in the test with SF-539 CNS, in the test with HT29 colon, in the test on NCI-H226 lung and in the test on OVCAR-8 ovarian was greater than 100 µM throughout. The TGI in the test on SNB-75 CNS, with K-562 leukemia, in the test on HCC-2998 colon, in the test with UO-31 renal and in the test on CAKI-1 renal was greater than 100 µM in each case.
As to `CC1=NN(c2ccccc2)C(=O)C1=C1SCCS1`, the TGI in the test with SN12C renal was greater than 100 µM; in the test with M14 melanoma, greater than 100 µM; in the test on OVCAR-5 ovarian it was greater than 100 µM; in the test with U251 CNS, greater than 90.3 µM; in the test with A549 NSCLC it was greater than 100 µM; with OVCAR-3 ovarian, greater than 100 µM. Further, the TGI in the test on KM12 colon, in the test with SK-MEL-28 melanoma, with SF-539 CNS, with HT29 colon, in the test with NCI-H226 lung and in the test on OVCAR-8 ovarian was greater than 100 µM each time. Besides, the TGI with SNB-75 CNS is greater than 100 µM; in the test on K-562 leukemia, greater than 69.1 µM; with HCC-2998 colon, greater than 100 µM; in the test with UO-31 renal, greater than 100 µM; with CAKI-1 renal it was greater than 100 µM.
For the compound `CNC(=O)CN(CC(=O)NC)C(=O)NC`, the TGI in the test on M14 melanoma, in the test with OVCAR-5 ovarian, in the test with U251 CNS, in the test with A549 NSCLC, in the test with OVCAR-3 ovarian and with KM12 colon was greater than 100 µM in each case. In addition, the TGI with SK-MEL-28 melanoma, with SF-539 CNS, with HT29 colon, in the test with NCI-H226 lung, with OVCAR-8 ovarian and in the test on SNB-75 CNS was greater than 100 µM each time. Further, the TGI with K-562 leukemia, in the test with HCC-2998 colon, with UO-31 renal and in the test with CAKI-1 renal was greater than 100 µM each time.
Consider `COc1ccc(N2C(=O)C3c4[nH]c5ccccc5c4C4CCCCCCCCCCC4C3C2=O)cc1` (stereo not given), for which the TGI in the test with SN12C renal was 19.9 µM; in the test on M14 melanoma, 27.1 µM; in the test on OVCAR-5 ovarian, greater than 64.6 µM; in the test on U251 CNS, 22.4 µM; in the test on A549 NSCLC, 23.2 µM; in the test with OVCAR-3 ovarian it was 26.4 µM. In addition, the TGI in the test with KM12 colon was greater than 57.3 µM; in the test on SK-MEL-28 melanoma, 29.7 µM; in the test on SF-539 CNS it was greater than 33.2 µM; in the test on HT29 colon, 18.9 µM; in the test on NCI-H226 lung, 17.7 µM; in the test with OVCAR-8 ovarian, 9.61 µM. In addition, the TGI was 55 µM in the test on SNB-75 CNS; greater than 78.3 µM in the test on K-562 leukemia; greater than 100 µM in the test with HCC-2998 colon; greater than 59.8 µM in the test on UO-31 renal; greater than 100 µM in the test on CAKI-1 renal.
For `COc1c(Cl)c2c(c(OC)c1OC)-c1ccc(OC)c(=O)c(Cl)c1C(NC(C)=O)CC2` (stereo not given), the TGI is greater than 36.4 µM with SN12C renal; 4.61 µM with M14 melanoma; greater than 100 µM in the test on OVCAR-5 ovarian; 1.15 µM in the test on U251 CNS; greater than 100 µM in the test with A549 NSCLC; 0.378 µM in the test with OVCAR-3 ovarian. Also, the TGI is greater than 100 µM in the test on KM12 colon; greater than 100 µM in the test on SK-MEL-28 melanoma; 0.444 µM with SF-539 CNS; 1.59 µM in the test on NCI-H226 lung; 1.1 µM in the test on SNB-75 CNS; greater than 100 µM in the test on K-562 leukemia. The figures for the TGI in the test on HCC-2998 colon, with UO-31 renal and in the test on CAKI-1 renal were 0.453 µM, greater than 100 µM and greater than 100 µM, respectively.
In the case of `CCOC(=O)/C(=C\c1ccc(O)c(OC)c1)C(=O)c1ccccc1`, the TGI in the test on SN12C renal was 33.5 µM; in the test with M14 melanoma it was greater than 48 µM; with OVCAR-5 ovarian, greater than 59.3 µM; with U251 CNS, 36.2 µM; in the test on A549 NSCLC it was 51.3 µM; in the test with OVCAR-3 ovarian, 54.3 µM. Besides, the TGI in the test on KM12 colon is 34.3 µM; in the test on SK-MEL-28 melanoma, 27.7 µM; with SF-539 CNS, 28 µM; in the test on HT29 colon it was greater than 66.8 µM; in the test with NCI-H226 lung it was greater than 53 µM; in the test with OVCAR-8 ovarian, 18.3 µM. In addition, the TGI in the test with SNB-75 CNS was 89.5 µM; in the test with K-562 leukemia, greater than 31.8 µM; in the test with HCC-2998 colon, 38.1 µM; in the test on UO-31 renal, greater than 51 µM; in the test with CAKI-1 renal, greater than 58.7 µM.
As to `COc1cc(C2=NN(C)C(c3ccc([N+](=O)[O-])o3)C2)cc(OC)c1OC` (stereo not given), the TGI in the test with SN12C renal, in the test with M14 melanoma, with OVCAR-5 ovarian, in the test on U251 CNS, in the test with A549 NSCLC and in the test with KM12 colon was greater than 100 µM throughout. Besides, the TGI with SK-MEL-28 melanoma, in the test on SF-539 CNS, with HT29 colon, with NCI-H226 lung, in the test with OVCAR-8 ovarian and in the test on SNB-75 CNS was greater than 100 µM in each case. The TGI with K-562 leukemia, in the test on HCC-2998 colon, with UO-31 renal and in the test on CAKI-1 renal was greater than 100 µM each time.

For the origin of these results see PubChem BioAssay (NCI).
